ChEMBL document CHEMBL1146279 (Bioorg Med Chem Lett, 2007)

Biological target: T1, Tyrosine-protein kinase JAK3 (Homo sapiens, UniProt P52333)
T1 sequence (P52333 whole entry): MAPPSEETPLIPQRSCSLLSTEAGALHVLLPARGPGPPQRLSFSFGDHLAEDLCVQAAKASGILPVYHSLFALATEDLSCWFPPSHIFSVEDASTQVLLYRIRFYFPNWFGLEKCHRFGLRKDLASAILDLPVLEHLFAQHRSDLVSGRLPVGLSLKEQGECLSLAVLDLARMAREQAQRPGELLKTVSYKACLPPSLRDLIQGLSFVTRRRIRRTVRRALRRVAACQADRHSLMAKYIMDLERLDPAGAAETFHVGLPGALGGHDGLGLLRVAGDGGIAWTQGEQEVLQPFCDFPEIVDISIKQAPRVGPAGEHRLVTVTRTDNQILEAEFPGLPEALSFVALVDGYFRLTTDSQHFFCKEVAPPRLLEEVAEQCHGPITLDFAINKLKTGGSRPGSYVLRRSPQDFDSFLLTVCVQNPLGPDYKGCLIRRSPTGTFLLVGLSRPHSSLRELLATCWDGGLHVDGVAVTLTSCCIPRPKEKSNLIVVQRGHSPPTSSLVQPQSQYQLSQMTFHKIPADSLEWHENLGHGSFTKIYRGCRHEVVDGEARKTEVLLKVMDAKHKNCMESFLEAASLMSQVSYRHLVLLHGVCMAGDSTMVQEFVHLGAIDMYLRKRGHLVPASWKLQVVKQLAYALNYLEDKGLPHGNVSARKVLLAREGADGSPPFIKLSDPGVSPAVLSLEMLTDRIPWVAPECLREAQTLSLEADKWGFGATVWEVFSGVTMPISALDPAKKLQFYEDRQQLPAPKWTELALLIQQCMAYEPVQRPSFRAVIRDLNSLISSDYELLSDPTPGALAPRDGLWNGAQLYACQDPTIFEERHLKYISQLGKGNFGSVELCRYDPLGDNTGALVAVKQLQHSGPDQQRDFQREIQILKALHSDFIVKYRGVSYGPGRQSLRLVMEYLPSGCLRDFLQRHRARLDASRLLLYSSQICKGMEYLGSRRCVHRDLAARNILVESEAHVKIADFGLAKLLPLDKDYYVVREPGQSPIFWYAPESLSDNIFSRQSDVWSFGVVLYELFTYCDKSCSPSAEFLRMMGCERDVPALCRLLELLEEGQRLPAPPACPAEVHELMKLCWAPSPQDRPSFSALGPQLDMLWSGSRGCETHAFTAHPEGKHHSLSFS
Assay: Inhibition of JAK3 expressed in Sf21 cells

**Q.** How did the IC50 turn out when `O=C1NCc2c1c1c3ccccc3n3c1c1c2c2ccccc2n1CC(CO)C3` (stereo not given) was run?
**A.** Its IC50 is 17.5 nM.

**Q.** How did the IC50 turn out when `O=C1NCc2c1c1c3cc(CN4CCOCC4)ccc3n3c1c1c2c2cc(CN4CCOCC4)ccc2n1CC(CO)C3` (stereo not given) was run?
**A.** The IC50 was over 5000 nM.

**Q.** Which IC50 does the source give for `O=C1NCc2c1c1c3ccccc3n3c1c1c2c2ccccc2n1CC(O)C3` (stereo not given) here?
**A.** The IC50 was 142 nM.

**Q.** Which IC50 does the source give for `O=C1NCc2c1c1c3cc(/C=C/Cn4ccnc4)ccc3n3c1c1c2c2ccccc2n1CC(CO)C3` (stereo not given) here?
**A.** Its IC50 is 11 nM.

**Q.** Which IC50 does the source give for `CN(C)Cc1ccc2c(c1)c1c3c(c4c5ccccc5n5c4c1n2CC(CO)C5)C(=O)NC3` (stereo not given) here?
**A.** Its IC50 is 250 nM.

**Q.** For `O=C1NCc2c1c1c3cc(/C=C/n4ccnc4)ccc3n3c1c1c2c2ccccc2n1CC(CO)C3` (stereo not given), which IC50 is on record?
**A.** The IC50 was 109 nM.

**Q.** `O=C1NCc2c1c1c3ccccc3n3c1c1c2c2ccccc2n1CC(O)(CO)C3` (stereo not given) was tested. Which IC50 did it give?
**A.** Its IC50 is 27 nM.

**Q.** With `O=C1NCc2c1c1c3ccccc3n3c1c1c2c2ccccc2n1CC(=C(CO)CO)C3` as the molecule, how does the IC50 read?
**A.** The IC50 was 36 nM.

**Q.** How did the IC50 turn out when `O=C1NCc2c1c1c3cc(CO)ccc3n3c1c1c2c2cc(CO)ccc2n1CC(CO)C3` (stereo not given) was run?
**A.** The IC50 was 14 nM.

**Q.** With `O=C1NCc2c1c1c3ccccc3n3c1c1c2c2ccccc2n1CC(CO)(CO)C3` as the molecule, how does the IC50 read?
**A.** The IC50 was 13.5 nM.

**Q.** Which IC50 does the source give for `CC(C)OCc1ccc2c(c1)c1c3c(c4c5ccccc5n5c4c1n2CC(CO)C5)C(=O)NC3` (stereo not given) here?
**A.** The IC50 was 80 nM.

**Q.** `O=Cc1ccc2c(c1)c1c3c(c4c5cc(Br)ccc5n5c4c1n2CC(CO)C5)C(=O)NC3` (stereo not given) was tested. Which IC50 did it give?
**A.** Its IC50 is 15 nM.

**Q.** Which IC50 does the source give for `CN(C)CCCNC(=O)/C=C/c1ccc2c(c1)c1c3c(c4c5ccccc5n5c4c1n2CC(CO)C5)CNC3=O` (stereo not given) here?
**A.** The IC50 was 237 nM.

**Q.** `O=C1NCc2c1c1c3cc(/C=C/c4ccccn4)ccc3n3c1c1c2c2ccccc2n1CC(CO)C3` (stereo not given) was tested. Which IC50 did it give?
**A.** The IC50 was 354 nM.

**Q.** How did the IC50 turn out when `O=C1NCc2c1c1c3cc(Br)ccc3n3c1c1c2c2ccccc2n1CC(CO)C3` (stereo not given) was run?
**A.** Its IC50 is 23.5 nM.
